Like-named read-outs stand apart in the source and are kept apart here.
How the values were obtained:
CDC7/DBF4 [1] = target: T1, CDC7/DBF4 (Homo sapiens, UniProt O00311); test: Inhibitory effect against activity of Cdc7/DBF4 kinase (ADP-Glo kit); format: biochemical; set-up: purchased Promega; conditions: 10 μM ATP, 25° C., 60 min
Experimental: Experimental Example 1. Detection of Inhibitory Effect of Compounds Against Activity of Cdc7/DBF4 Kinase
Cdc7/DBF4 kinase detection kit purchased from Promega; and
(§1) Nivo multi-marker analyzer (PerkinElmer).
An enzyme, a substrate, adenosine triphosphate and an inhibitor were diluted with the kinase buffer in the kit.
A test compound was serially 5-fold diluted to an 8th concentration, i.e., from 10 μM to 0.13 nM, with the DMSO concentration being 5%, and the duplicate well experiment was set up. To a microplate were added 1 μL of inhibitors of various concentration gradients, 2 μL of CDC7/DBF4 kinase (6.25 ng), 2 μL of a mixture of substrate and ATP (10 μM adenosine triphosphate, 0.2 μg/μL substrate), and the final concentration gradient of the compound was diluted from 2 μM to 0.025 nM. The reaction system was left reacting at 25° C. for 60 min. After the reaction was completed, 5 μL of ADP-Glo reagent was added to each well, and the reaction was continued at 25° C. for 40 min. After the reaction was completed, 10 μL of the kinase detection reagent was added to each well. After 30 min of reaction at 25° C., the chemiluminescence was read using a multi-marker analyzer, with an integration time of 0.5 s.
The original data were converted to inhibition rate using the equation (Sample−Min)/(Max−Min)×100%, and the IC50 value was then curve fitted using four parameters (obtained from the “log(inhibitor) vs. response-Variableslope” model in GraphPadPrism). Table 1 provides the inhibitory activity of the compounds disclosed herein against Cdc7/DBF4 kinase.

COLO205 cells = test: Inhibitory activity against COLO205 cell proliferation (CellTiter-Glo); format: cell-based; conditions: Homo sapiens, COLO 205, 72 h; 3 days incubation
Experimental: Experimental Example 2. Detection of Inhibitory Effect of Compounds Against Activity of Colo205 Cells
1640 medium; fetal bovine serum; penicillin/streptomycin antibiotics purchased from Wisent;
CellTiter-Glo (chemiluminescence detection reagent for cell viability) reagent purchased from Promega;
COLO205 cell line purchased from Wuhan Procell Life Science&Technology Co., Ltd; and
as §1
COLO205 cells were plated on to white 96-well plates by adding 80 μL of cell suspension (containing 3000 COLO205 cells) to each well. The cell plate was incubated in a CO2 incubator overnight.
A test compound was serially 3-fold diluted to an 8th concentration, i.e., from 2 mM to 920 nM, and the duplicate well experiment was set up. […] Another cell plate was read for signal values on the day of compound addition, and these values were used as the […] in data analysis. The chemiluminescence detection reagent for cell viability was added to this cell plate at 25 μL per well and the luminescence signals were stabilized by incubation at room temperature for 10 min. Readings were taken using a multi-marker analyzer.
The chemiluminescence detection reagent for cell viability was added to the cell plate at 25 μL per well and the luminescence signals were stabilized by incubation at room temperature for 10 min. […]

[2] = cited from earlier work
[3] = test system: colo205 cell line with high expression of Cdc7; conditions: read-out: COL0205 IC50; cited from earlier work
CDC7/DBF4 [4] = target: T1, CDC7/DBF4; conditions: cited from earlier work
tumors in 25 PDX models = conditions: cited from earlier work

T1 sequence (O00311 whole entry): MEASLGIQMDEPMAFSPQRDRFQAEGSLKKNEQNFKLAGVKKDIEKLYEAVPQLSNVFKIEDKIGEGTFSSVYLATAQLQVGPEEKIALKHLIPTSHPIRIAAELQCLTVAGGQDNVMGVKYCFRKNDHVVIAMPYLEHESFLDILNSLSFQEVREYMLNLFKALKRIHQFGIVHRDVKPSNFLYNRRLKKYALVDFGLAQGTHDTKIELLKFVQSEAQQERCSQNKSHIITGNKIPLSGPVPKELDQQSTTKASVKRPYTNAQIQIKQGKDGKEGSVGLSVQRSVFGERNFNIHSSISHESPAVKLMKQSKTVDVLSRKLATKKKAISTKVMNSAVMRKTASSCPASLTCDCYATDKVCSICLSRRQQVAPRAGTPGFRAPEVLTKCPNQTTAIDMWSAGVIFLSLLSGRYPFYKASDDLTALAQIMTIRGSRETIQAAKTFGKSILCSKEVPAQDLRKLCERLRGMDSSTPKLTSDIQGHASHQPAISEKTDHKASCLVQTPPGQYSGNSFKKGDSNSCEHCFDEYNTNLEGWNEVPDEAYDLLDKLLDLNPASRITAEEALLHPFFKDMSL
T1 sequence (Q9UBU7 whole entry partner): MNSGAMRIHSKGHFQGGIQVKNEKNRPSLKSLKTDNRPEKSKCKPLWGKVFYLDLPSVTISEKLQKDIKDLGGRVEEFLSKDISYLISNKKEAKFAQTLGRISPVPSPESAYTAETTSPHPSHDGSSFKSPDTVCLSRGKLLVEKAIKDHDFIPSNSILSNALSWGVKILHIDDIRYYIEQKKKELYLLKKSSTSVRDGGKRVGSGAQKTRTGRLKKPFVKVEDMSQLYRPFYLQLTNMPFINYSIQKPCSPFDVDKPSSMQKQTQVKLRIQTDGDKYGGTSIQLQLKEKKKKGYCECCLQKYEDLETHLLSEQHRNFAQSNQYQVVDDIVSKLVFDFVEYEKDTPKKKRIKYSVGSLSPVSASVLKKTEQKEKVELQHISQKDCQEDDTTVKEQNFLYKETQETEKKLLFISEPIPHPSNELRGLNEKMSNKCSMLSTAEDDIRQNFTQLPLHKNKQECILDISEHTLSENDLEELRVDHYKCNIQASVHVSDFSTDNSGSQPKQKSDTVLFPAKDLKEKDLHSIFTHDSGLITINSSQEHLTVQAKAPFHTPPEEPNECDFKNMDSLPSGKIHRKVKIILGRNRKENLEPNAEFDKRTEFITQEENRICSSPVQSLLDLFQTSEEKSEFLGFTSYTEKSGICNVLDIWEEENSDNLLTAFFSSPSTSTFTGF

SMILES	IC50 (CDC7/DBF4 [1]) [nM]	also measured
O=c1[nH]c(C2CC3CCN2CC3)nc2c3c(oc12)-c1c[nH]nc1CCC3 (single isomer, unassigned) [Compound 1-1]	1.49	
O=c1[nH]c(C2CC3CCN2CC3)nc2c3c(oc12)-c1c[nH]nc1CCC3 (single isomer, unassigned) [Compound 1-2]	2.8	IC50 (COLO205 cells): 51.7 nM
O=c1[nH]c([C@@H]2CCCN2)nc2c3c(oc12)-c1c[nH]nc1CCC3 [Compound 2-1]	0.95	
O=c1[nH]c([C@H]2CCCN2)nc2c3c(oc12)-c1c[nH]nc1CCC3 [Compound 2-2]	1.41	
CN1CCC[C@H]1c1nc2c3c(oc2c(=O)[nH]1)-c1c[nH]nc1CCC3 [Compound 3-1]	0.6	
CN1CCC[C@@H]1c1nc2c3c(oc2c(=O)[nH]1)-c1c[nH]nc1CCC3 [Compound 3-2]	1.97	
Cc1[nH]ncc1-c1cc2nc([C@@H]3CC4CCN3CC4)[nH]c(=O)c2s1 [TAK-931]		clearance rate in vivo [2]: high clearance rate; half-life in vivo [2]: short half-life; IC50 [3]: 85.5 nM; IC50 (CDC7/DBF4 [4]): 2.59 nM; inhibitory activity against tumors in PDX models (tumors in 25 PDX models): excellent inhibitory activity

From US20220389026A1, “TETRACYCLIC COMPOUND USED AS CDC7 INHIBITOR” (Chia Tai Tianqing Pharmaceutical Group Co., Ltd., priority 2019, published 2022)
